Assay results taken from PubChem BioAssay (NCI).
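Interpolation was linear, between the two tested concentrations surrounding the appropriate level; five concentrations were tested over 48 hours in 96-well plates. The concentration for 50% growth inhibition is given as GI50. TGI denotes the concentration required for complete inhibition of growth.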

Assays:
Experiment in all cases: NCI-60 cell line screen, 48 h
UO-31 renal = system: UO-31 renal
U251 CNS = system: U251 CNS
MALME-3M melanoma = system: MALME-3M melanoma
HOP-92 NSCLC = system: HOP-92 NSCLC
DLD-1 colon = system: DLD-1 colon
SK-MEL-2 melanoma = system: SK-MEL-2 melanoma
HCT-116 colon = system: HCT-116 colon
OVCAR-5 ovarian = system: OVCAR-5 ovarian
SF-539 CNS = system: SF-539 CNS
NCI-H23 lung = system: NCI-H23 lung

Structure (SMILES) | TGI (UO-31 renal) [µM] | TGI (U251 CNS) [µM] | TGI (MALME-3M melanoma) [µM] | TGI (HOP-92 NSCLC) [µM] | TGI (DLD-1 colon) [µM] | TGI (SK-MEL-2 melanoma) [µM] | TGI (HCT-116 colon) [µM] | TGI (OVCAR-5 ovarian) [µM] | TGI (SF-539 CNS) [µM] | TGI (NCI-H23 lung) [µM] | GI50 (HOP-92 NSCLC) [µM] | GI50 (SK-MEL-2 melanoma) [µM] | GI50 (UO-31 renal) [µM] | GI50 (MALME-3M melanoma) [µM] | GI50 (DLD-1 colon) [µM] | GI50 (HCT-116 colon) [µM] | GI50 (OVCAR-5 ovarian) [µM] | GI50 (SF-539 CNS) [µM] | GI50 (NCI-H23 lung) [µM] | GI50 (U251 CNS) [µM]
CC(C)C1(O)C(c2ccccc2)=C(c2ccccc2)C(c2ccccc2)=C1c1ccccc1 | 23.7 | 18.7 | 30.9 | 50.2 | > 100 | 18.9 | 13.4 | > 100 | 28.6 | 91.3 | – | – | – | – | – | – | – | – | – | –
O=C(Nc1ccc(Cl)cc1Cl)C(=O)C(C(=O)c1ccc2ccccc2c1)C1OC(=O)c2ccccc21 (stereo not given) | 27 | 16.2 | – | 8.92 | 30.9 | 31.7 | 18 | 19.6 | 11.7 | 13.1 | – | – | – | – | – | – | – | – | – | –
COC(=O)C1C(O)CC(c2ccccn2)N(Cc2ccccc2)C1c1ccccn1 (stereo not given) | > 100 | > 100 | > 100 | > 100 | > 100 | > 100 | > 100 | > 100 | > 100 | > 100 | – | – | – | – | – | – | – | – | – | –
COC1=CC(=O)C2C(C1=O)[C@@H]1c3ccccc3C[C@H]21 (stereo not given in full) | > 100 | > 100 | > 100 | > 100 | > 100 | > 100 | – | > 100 | > 100 | > 100 | – | – | – | – | – | – | – | – | – | –
O=C(O)COc1ccc(O)c2c1C(=O)CCCC2=O | > 100 | > 100 | > 100 | – | > 100 | > 100 | > 100 | > 100 | > 100 | > 100 | – | – | – | – | – | – | – | – | – | –
OCCCOC(c1ccccc1)(c1ccccc1)c1ccccc1 | > 100 | > 100 | > 100 | > 100 | > 100 | – | > 100 | > 100 | > 100 | > 100 | – | – | – | – | – | – | – | – | – | –
CC1OC(OCC2OC(Oc3c(-c4ccc(O)cc4)oc4cc(O)cc(O)c4c3=O)C(OC3OC(C)C(O)C(O)C3O)C(O)C2O)C(O)C(O)C1O (stereo not given) | > 100 | > 100 | > 100 | > 100 | > 100 | > 100 | > 100 | > 100 | > 100 | > 100 | – | – | – | – | – | – | – | – | – | –
CC1CCP(=O)(c2ccccc2)c2ccccc21 (stereo not given) | > 100 | 53.3 | > 100 | – | > 100 | > 100 | 46.7 | > 100 | > 100 | > 100 | – | – | – | – | – | – | – | – | – | –
CC(=O)NNc1nc(C)c(C(=O)NNC(=O)C(=O)Nc2c(C)cccc2C)s1 | > 100 | > 100 | > 100 | > 100 | > 100 | > 100 | > 100 | > 100 | > 100 | 60.1 | – | – | – | – | – | – | – | – | – | –
CCCCc1c2c(nc3c1CCc1cc4cc5c(nc4nc1-3)-c1nc3c(c(CCCC)c1CC5)CCCC3)CCCC2 | > 100 | > 100 | > 100 | – | > 100 | – | > 100 | – | > 100 | > 100 | – | – | – | – | – | – | – | – | – | –
COc1cc(/C=C\c2ccc(C)cc2)cc(OC)c1OC | – | 0.348 | – | 4.13 | > 100 | 36.5 | – | > 91.5 | 0.0218 | 0.276 | 0.0233 | 0.0044 | – | – | – | – | – | – | – | –
COc1cc(/C=C\c2ccccc2)cc(OC)c1OC | 30 | 29.4 | 19.7 | 21.8 | > 78.2 | 26.2 | > 100 | 47.3 | 7.47 | 19.5 | – | – | – | – | – | – | – | – | – | –
CC(=O)N[C@@H]1C(O)CN2C(=O)C(=O)O[C@H](C(O)CO)[C@@H]12 (stereo not given in full) | > 100 | > 100 | > 100 | > 100 | > 100 | > 100 | > 100 | > 100 | > 100 | – | – | – | – | – | – | – | – | – | – | –
Cn1nc(-c2ccccc2)c(C(=O)/C=C/c2ccc(F)cc2)c(N2CCCCC2)c1=O | 19.1 | 27.7 | – | 20 | 16.6 | – | 11.5 | – | 16.4 | – | – | – | – | – | – | – | – | – | – | –
CCCNCCCC(NC(C)=O)C(=O)NCc1ccccc1 (stereo not given) | > 100 | > 100 | > 100 | > 100 | > 100 | > 100 | > 100 | > 100 | > 100 | > 100 | – | – | – | – | – | – | – | – | – | –
CCOC(=O)/C(O)=C/c1cc(OC)cc(=O)o1 | > 100 | > 100 | > 100 | > 100 | > 100 | > 100 | > 100 | > 100 | > 100 | > 100 | – | – | – | – | – | – | – | – | – | –
COc1ccccc1N=C(N)N/N=C/c1c[nH]c2ccccc12 | 27.1 | 24.2 | 8.19 | – | 31.7 | 19.2 | 19.6 | 26.9 | 26.4 | 19.2 | – | – | – | – | – | – | – | – | – | –
Nc1nc2c(c(=O)[nH]1)NC(CO)CN2 (stereo not given) | > 100 | > 100 | > 100 | – | > 100 | – | > 100 | – | > 100 | > 100 | – | – | – | – | – | – | – | – | – | –
CN(C)c1ccc([O-])cc1.CN(C)c1ccc([O-])cc1.CN(C)c1ccc([O-])cc1.CN(C)c1ccc([O-])cc1.[Ti+4] | > 100 | – | > 100 | – | > 100 | > 100 | > 100 | > 100 | > 100 | > 100 | – | > 100 | > 100 | > 100 | 91 | > 100 | > 100 | > 100 | > 100 | –
CC1CC#CCOC(=O)CCCC1=O (stereo not given) | – | > 100 | – | – | > 100 | – | > 100 | – | > 100 | > 100 | – | – | – | – | – | – | – | – | – | –
COC[C@@H](N=CN1CCc2cc(OC)c(OC)cc2[C@@H]1C)C(C)(C)C | > 100 | > 100 | > 100 | > 100 | > 100 | > 100 | > 100 | – | > 100 | > 100 | – | – | – | – | – | – | – | – | – | –
C=C1SC(=Nc2c(C)cc(C)cc2C)N(C(=O)c2sc3ccccc3c2Cl)C12CCCCC2 | > 100 | > 100 | > 100 | > 100 | – | > 100 | > 100 | > 100 | > 100 | > 100 | 39.1 | 61.6 | 63.8 | > 100 | – | > 100 | > 100 | > 100 | 37.4 | > 100
